One may read the IC50 as the concentration needed to halve the response being measured. Read a high IC50 as weaker potency.

The structures appear in SMILES notation.

The assay has as its target HSP90 (Homo sapiens, UniProt P07900). The assay can be described thus: HSP90 inhibition (HSP90 IC50). The class given is biochemical.
The compound `CCC(CC)Nc1cc(C(=O)NC2CC3CCC(C2)N3c2ccc(C(=O)NCC3CCCN3CC)cn2)c(C)cc1C(N)=O` (stereo not drawn) [5-[(1-ethylpropyl)amino]-N-{8-[5-({[(1-ethylpyrrolidin-2-yl)methyl]amino}carbonyl)pyridin-2-yl]-8-azabicyclo[3.2.1]oct-3-endo-yl}-2-methylbenzene-1,4-dicarboxamide] registered an IC50 of less than 0.5 µM.

As to `Cc1cc(C(N)=O)c(NCC2CCCC2)cc1C(=O)N[C@H]1C[C@H]2CC[C@@H](C1)N2c1ccc(C(=O)C2CC2)cn1` [5-[(cyclopentylmethyl)amino]-N-{8-[5-(cyclopropylcarbonyl)pyridin-2-yl]-8-azabicyclo[3.2.1]oct-3-endo-yl}-2-methylbenzene-1,4-dicarboxamide], the IC50 was less than 0.5 µM.

In turn, `NC(=O)c1cc(Br)c(C(=O)N[C@H]2C[C@H]3CC[C@@H](C2)N3c2ccc(C(=O)C3CC3)cn2)cc1N` [5-amino-2-bromo-N-{8-[5-(cyclopropylcarbonyl)pyridin-2-yl]-8-azabicyclo[3.2.1]oct-3-endo-yl}benzene-1,4-dicarboxamide] yielded an IC50 of less than 0.5 µM.

`Cc1cc(C(N)=O)c(N)cc1C(=O)N[C@H]1C[C@H]2CC[C@@H](C1)N2c1ccc(C(=O)C2CC2)cn1` [5-amino-N-{8-[5-(cyclopropylcarbonyl)pyridin-2-yl]-8-azabicyclo[3.2.1]oct-3-endo-yl}-2-methylbenzene-1,4-dicarboxamide] yielded an IC50 of less than 0.5 µM.

For the compound `CC[C@@H](C)Nc1c(C(N)=O)cc(Br)c(C(=O)NC2CC3CCC(C2)N3c2ccc(C(=O)C3CC3)cn2)c1Cl` (stereo partly drawn) [5-bromo-3-chloro-N4-{8-[5-(cyclopropylcarbonyl)pyridin-2-yl]-8-azabicyclo[3.2.1]oct-3-endo-yl}-2-{[(1R)-1-methylpropyl]amino}benzene-1,4-dicarboxamide], the IC50 was less than 0.5 µM.

In turn, `Cc1cccc(C(=O)N[C@H]2C[C@H]3CC[C@@H](C2)N3c2ccc(C(=O)NCc3ccccc3)cn2)c1C` [6-(3-endo-{[(2,3-dimethylphenyl)carbonyl]amino}-8-azabicyclo[3.2.1]oct-8-yl)-N-(phenylmethyl)pyridine-3-carboxamide] returned an IC50 of 2 to 10 µM.

For the compound `Cc1c(N)cccc1C(=O)N[C@H]1C[C@H]2CC[C@@H](C1)N2c1ccc(C(=O)NCc2ccccc2)cn1` [6-(3-endo-{[(3-amino-2-methylphenyl)carbonyl]amino}-8-azabicyclo[3.2.1]oct-8-yl)-N-(phenylmethyl)pyridine-3-carboxamide], the IC50 was in the range of 2 to 10 µM.

Compound `Cc1c(O)cccc1C(=O)NC1CC2CCC(C1)N2c1ccc(C(=O)NCc2ccccc2)cn1` (stereo not drawn) [6-(3-endo-{[(3-hydroxy-2-methylphenyl)carbonyl]amino}-8-azabicyclo[3.2.1]oct-8-yl)-N-(phenylmethyl)pyridine-3-carboxamide] showed an IC50 of 1 to 2 µM.

As for `Cc1c(O)cccc1C(=O)NC1CC2CCC(C1)N2c1ccc(C(=O)N[C@@H](C)c2ccc(N3CCN(C)CC3)cc2)cn1` (stereo partly drawn) [6-(3-endo-{[(3-hydroxy-2-methylphenyl)carbonyl]amino}-8-azabicyclo[3.2.1]oct-8-yl)-N-{(1S)-1-[4-(4-methylpiperazin-1-yl)phenyl]ethyl}pyridine-3-carboxamide], the IC50 is less than 0.5 µM.

`Cc1cc(N)ccc1C(=O)N[C@H]1C[C@H]2CC[C@@H](C1)N2c1ccc(C(N)=O)cn1` [6-(3-endo-{[(4-amino-2-methylphenyl)carbonyl]amino}-8-azabicyclo[3.2.1]oct-8-yl)pyridine-3-carboxamide] registered an IC50 of 2 to 10 µM.

`COc1cccc(C(=O)N[C@H]2C[C@H]3CC[C@@H](C2)N3c2ccc(C(N)=O)cn2)c1CCCCN(C)C` [6-(3-endo[({2-[4-(dimethylamino)butyl]-3-(methyloxy)phenyl}carbonyl)amino]-8-azabicyclo[3.2.1]oct-8-yl}pyridine-3-carboxamide]: the IC50 was in the range of 1 to 2 µM.

As to `COc1cccc(C(=O)N[C@H]2C[C@H]3CC[C@@H](C2)N3c2ccc(C(=O)NCc3cccs3)cn2)c1C` [6-[3-endo({[2-methyl-3-(methyloxy)phenyl]carbonyl}amino)-8-azabicyclo[3.2.1]oct-8-yl]-N-(2-thienylmethyl)pyridine-3-carboxamide], the IC50 is less than 0.5 µM.

`COc1cccc(C(=O)N[C@H]2C[C@H]3CC[C@@H](C2)N3c2ccc(C(=O)NCc3ccc(C)cc3)cn2)c1C` [6-[3-endo-({(2-methyl-3-(methyloxy)phenyl]carbonyl}amino)-8-azabicyclo[3.2.1]oct-8-yl]-N-[(4-methylphenyl)methyl]pyridine-3-carboxamide] returned an IC50 of less than 0.5 µM.

`O=C(NCc1ccccc1)c1ccc(N2[C@@H]3CC[C@H]2C[C@@H](NC(=O)c2ccc(C(O)CO)cc2)C3)nc1` (stereo partly drawn) [6-[3-endo-({(4-(1,2-dihydroxyethyl)phenyl]carbonyl}amino)-8-azabicyclo[3.2.1]oct-8-yl]-N-(phenylmethyl)pyridine-3-carboxamide] registered an IC50 of 1 to 2 µM.

As for `COc1cccc(C(=O)N[C@H]2C[C@H]3CC[C@@H](C2)N3c2ccc(C(N)=O)cn2)c1CC(O)CO` (stereo partly drawn) [6-[3-endo-({[2-(2,3-dihydroxypropyl)-3-(methyloxy)phenyl]carbonyl}amino)-8-azabicyclo[3.2.1]oct-8-yl]pyridine-3-carboxamide], the IC50 fell in the range of 2 to 10 µM.

On to `COc1cccc(C(=O)N[C@H]2C[C@H]3CC[C@@H](C2)N3c2ccc(C(=O)NCc3ccccc3)cn2)c1CCCO` [6-[3-endo-({[2-(3-hydroxypropyl)-3-(methyloxy)phenyl]carbonyl}amino)-8-azabicyclo[3.2.1]oct-8-yl]-N-(phenylmethyl)pyridine-3-carboxamide], for which the IC50 was less than 0.5 µM.

As to `COc1cccc(C(=O)N[C@H]2C[C@H]3CC[C@@H](C2)N3c2ccc(C(N)=O)cn2)c1CCCO` [6-[3-endo-({[2-(3-hydroxypropyl)-3-(methyloxy)phenyl]carbonyl}amino)-8-azabicyclo[3.2.1]oct-8-yl]pyridine-3-carboxamide], the IC50 lay within 1 to 2 µM.

As to `COc1cccc(C(=O)N[C@H]2C[C@H]3CC[C@@H](C2)N3c2ccc(C(N)=O)cn2)c1C#CCCO` [6-[3-endo-({[2-(4-hydroxybut-1-yn-1-yl)-3-(methyloxy)phenyl]carbonyl}amino)-8-azabicyclo[3.2.1]oct-8-yl]pyridine-3-carboxamide], the IC50 lay within 2 to 10 µM.

`COc1cccc(C(=O)N[C@H]2C[C@H]3CC[C@@H](C2)N3c2ccc(C(N)=O)cn2)c1CCCCO` [6-[3-endo-({[2-(4-hydroxybutyl)-3-(methyloxy)phenyl]carbonyl}amino)-8-azabicyclo[3.2.1]oct-8-yl]pyridine-3-carboxamide]: the IC50 fell in the range of 0.5 to 0.999 µM.

`COc1cccc(C(=O)N[C@H]2C[C@H]3CC[C@@H](C2)N3c2ccc(C(=O)NCc3ccccc3)cn2)c1Br` [6-[3-endo-({[2-bromo-3-(methyloxy)phenyl]carbonyl}amino)-8-azabicyclo[3.2.1]oct-8-yl]-N-(phenylmethyl)pyridine-3-carboxamide] came in with an IC50 of 1 to 2 µM.

Take `COc1cccc(C(=O)N[C@H]2C[C@H]3CC[C@@H](C2)N3c2ccc(C(N)=O)cn2)c1Cl` [6-[3-endo-({[2-chloro-3-(methyloxy)phenyl]carbonyl}amino)-8-azabicyclo[3.2.1]oct-8-yl]pyridine-3-carboxamide]: the IC50 fell in the range of 2 to 10 µM.

In the case of `COc1cccc(C(=O)N[C@H]2C[C@H]3CC[C@@H](C2)N3c2ccc(C(N)=O)cn2)c1F` [6-[3-endo-({[2-fluoro-3-(methyloxy)phenyl]carbonyl}amino)-8-azabicyclo[3.2.1]oct-8-yl]pyridine-3-carboxamide], the IC50 fell in the range of 2 to 10 µM.

On to `COc1cccc(C(=O)N[C@H]2C[C@H]3CC[C@@H](C2)N3c2ccc(C(=O)NCc3ccccc3)cn2)c1I` [6-[3-endo-({[2-iodo-3-(methyloxy)phenyl]carbonyl}amino)-8-azabicyclo[3.2.1]oct-8-yl]-N-(phenylmethyl)pyridine-3-carboxamide], for which the IC50 was 2 to 10 µM.

Regarding `COc1ccc(C(=O)N[C@H]2C[C@H]3CC[C@@H](C2)N3c2ccc(C(=O)NCc3ccccc3)cn2)c(C)c1OC` [6-[3-endo-({[2-methyl-3,4-bis(methyloxy)phenyl]carbonyl}amino)-8-azabicyclo[3.2.1]oct-8-yl]-N-(phenylmethyl)pyridine-3-carboxamide], the IC50 was 2 to 10 µM.

`COc1cccc(C(=O)NC2CC3CCC(C2)N3c2ccc(C(=O)NC3CCN(c4ccccc4)CC3)cn2)c1C` (stereo not drawn) [6-[3-endo-({[2-methyl-3-(methyboxy)phenyl]carbonyl}amino)-8-azabicyclo[3.2.1]oct-8-yl]-N-(1-phenylpiperidin-4-yl)pyridine-3-carboxamide] registered an IC50 of 2 to 10 µM.

Regarding `CNc1cccc(C(=O)NC2CC3CCC(C2)N3c2ccc(C(=O)N[C@@H](C)c3ccc(N4CCN(C)CC4)cc3)cn2)c1C` (stereo partly drawn) [6-[3-endo-({[2-methyl-3-(methylamino)phenyl]carbonyl}amino)-8-azabicyclo[3.2.1]oct-8-yl]-N-{(1S)-1-[4-(4-methylpiperazin-1-yl)phenyl]ethyl}pyridine-3-carboxamide], the IC50 was less than 0.5 µM.

In turn, `C#CCNC(=O)c1ccc(N2[C@@H]3CC[C@H]2C[C@@H](NC(=O)c2cccc(OC)c2C)C3)nc1` [6-[3-endo-({[2-methyl-3-(methyloxy)phenyl)carbonyl}amino)-8-azabicyclo(3.2.1]oct-8-yl]-N-prop-2-yn-1-ylpyridine-3-carboxamide] returned a concentration for half-maximal inhibition (IC50) of 1 to 2 µM.

On to `COc1cccc(C(=O)N[C@H]2C[C@H]3CC[C@@H](C2)N3c2ccc(C(=O)NC3CCN(C)CC3)cn2)c1C` [6-[3-endo-({[2-methyl-3-(methyloxy)phenyl]carbonyl}amino)-8-azabicyclo[3.2.1]oct-8-yl]-N-(1-methylpiperidin-4-yl)pyridine-3-carboxamide], for which the IC50 lay in the range of 0.5 to 0.999 µM.

Compound `COc1cccc(C(=O)N[C@H]2C[C@H]3CC[C@@H](C2)N3c2ccc(C(=O)Nc3ccccc3C)cn2)c1C` [6-[3-endo-({[2-methyl-3-(methyloxy)phenyl]carbonyl}amino)-8-azabicyclo[3.2.1]oct-8-yl]-N-(2-methylphenyl)pyridine-3-carboxamide] displayed an IC50 of 2 to 10 µM.

On to `COc1cccc(C(=O)N[C@H]2C[C@H]3CC[C@@H](C2)N3c2ccc(C(=O)NCC(C)C)cn2)c1C` [6-[3-endo-({[2-methyl-3-(methyloxy)phenyl]carbonyl}amino)-8-azabicyclo[3.2.1]oct-8-yl]-N-(2-methylpropyl)pyridine-3-carboxamide], for which the IC50 is 1 to 2 µM.

Values taken from patent publication US8012956B2, “Tropane compounds” (Exelixis, Inc., priority 2007, dated 2011).
